Results reported in patent US7981915B2, “Methods for modulating PPAR biological activity for the treatment of diseases caused by mutations in the CFTR gene” (Beth Israel Deaconess Medical Center, priority 2003, dated 2011).

Assays:
IL-6 [1] = assay: LPS-induced IL-6 secretion from peritoneal macrophages after in vivo DHA pretreatment; parameters: species or system mice; conditions: CF peritoneal macrophages; oral DHA pretreatment 40 mg/day for 10 days
Protocol: (§1) Cftr^−/− exon 10 knockout mice and wild-type (WT) littermates were maintained on peptamen (as described above). Peritoneal macrophages were induced by intraperitoneal injection of 2 ml thioglycollate broth followed by harvesting of the macrophages 4 days after injection. For studies determining the effect of in vivo pretreatment of DHA, cftr^−/− mice were given 40 mg DHA/day for 10 days. For in vitro experiments, harvested macrophages were plated in RPMI medium with 10% serum and incubated for 12 hours with media alone or with DHA (5 μM), EPA (5 μM) the PPAR agonist Wy14643 (50 μM) or the PPAR agonist rosiglitazone (10 μM). The cells were washed and then stimulated with 0-10000 ng/ml LPS for 4.5 hours. TNFα and IL-6 secretion were measured by ELISA. Fatty acids were analyzed by GC/MS.

PPARα mRNA [2] = assay: Liver PPARα mRNA by quantitative RT-PCR (DSS colitis / DHA); format: in vivo, mice
Protocol: On day 40, WT and cftr^−/− mice were fed Peptamen alone or Peptamen plus 125 mg DSS/day (MP Biomedicals, Aurora, Ohio) for 5 days followed by 9 days of 85 mg DSS/day as previously described for the genesis of bile duct injury (Blanco, P. G. et al., supra). The amount of DSS in Peptamen was equally measured for WT and cftr^−/− mice. The volume of Peptamen administered (20 ml) was measured on a daily basis. There was no difference in Peptamen intake between WT and cftr^−/− mice. The mean weight of WT mice at the start of DSS treatment was 20.5 g (range 14.5-26 g), and the mean weight of cftr^−/− mice was 18.9 g (range 15.5-23.5 g). These values were not statistically different between WT and cftr^−/− mice. […] There was no difference in weight lost during DSS treatment comparing WT and cftr^−/− mice. Additional mice from these groups were given DHA (Pure Encapsulations, Sudbury, Mass.) prepared as a stable emulsion in Peptamen, at a dose of 40 mg per day for 5 days before and continued for 14 days during administration of the DSS. Bile duct injury was quantified, as previously described, by examining histological features of epithelial injury, bile duct proliferation, and bile duct angulation (Blanco et al., supra). To determine whether a complete absence of PPARα was responsible for the bile duct injury, 5 PPARα^−/− mice were treated with 5% DSS in drinking water for 7 days to induce colitis (Okayasu et al., Gastroenterology, 98:694-702, 1990). PPARγ^−/− mice are not viable and thus were not tested.
After each specific treatment, the mice were euthanized with carbon dioxide. Tissues were snap frozen in RNAlater (Ambion, Austin, Tex.) for RNA extraction (Barrett et al., Nat Genet, 23:32-33, 1999). PPAR mRNA analyses were performed by quantitative RT-PCR. Total RNA from cftr^−/− and WT tissues was prepared using the RNA STAT-60 isolation reagent (Tel-Test, Friendswood, Tex.) and quantified spectrophotometrically. Quantitative PCR was performed in an ABI Prism 7700 Sequence Detector (Applied Biosystems, Foster City, Calif.) using a RT-PCR master mix kit (Applied Biosystems) according to the manufacturer's instructions. PCR primers and PPAR FAM-labeled TaqMan probes were from Integrated DNA Technologies (Coralville, Iowa). The oligonucleotide sequences used for PPARγ were the following: PPARγ exon 2 FW 5′-TCACAAGAGCTGACCCAATGGT-3′ (SEQ ID NO: 1), PPARγ exon 2 RV 5′-ATAATAAGGTGGAGATGCAGGTTCTAC-3′ (SEQ ID NO: 2), PPARγ probe 5′-FAM-CTGAAGCTCCAAGAATACCAAAGTGCGATC-TAMRA-3′ (SEQ ID NO: 3). The sequences used for PPARα were the following: PPARα FW 5′-TATTCGGCTGAAGCTGGTGTAC-3′ (SEQ ID NO: 9), PPARα RV 5′-CTGGCATTTGTTCCGGTTCT-3′ (SEQ ID NO: 10), PPARα probe 5′-CTGAATCTTGCAGCTCCGATCACACTTG-3′ (SEQ ID NO: 11). Levels of mRNA were normalized to 18s ribosomal RNA (ribosomal RNA control reagents, Applied Biosystems) quantified simultaneously to PPAR in a multiplex RT-PCR reaction. Thermocycler conditions used were—Stage 1: 48° C./30 minutes; Stage 2: 95° C./10 minutes; Stage 3: 40 cycles of 95° C./15 seconds and 60° C./60 seconds. All samples were analyzed in duplicate.

TNFα = assay: LPS-induced TNFα secretion from peritoneal macrophages incubated in vitro with PPAR agonists; format: cell-based, mice; conditions: in vitro 12 hours, DHA 5 μM, Wy14643 50 μM, rosiglitazone 10 μM
Protocol: as §1

PPARα mRNA [3] = conditions: rat liver; cited from earlier work
IL-6 [4] = assay: LPS-induced IL-6 secretion from peritoneal macrophages incubated in vitro with PPAR agonists; format: cell-based, mice; conditions: CF macrophages; in vitro 12 hours; Wy14643 50 μM, rosiglitazone 10 μM; 100 ng/ml LPS
PPARγ mRNA = assay: Liver PPARγ mRNA by quantitative RT-PCR (DSS colitis / DHA); format: in vivo; conditions: WT and cftr−/− mice; DSS in the absence or presence of DHA; to undetectable levels
Protocol: (§2) On day 40, WT and cftr^−/− mice were fed Peptamen alone or Peptamen plus 125 mg DSS/day (MP Biomedicals, Aurora, Ohio) for 5 days followed by 9 days of 85 mg DSS/day as previously described for the genesis of bile duct injury (Blanco, P. G. et al., supra). The amount of DSS in Peptamen was equally measured for WT and cftr^−/− mice. The volume of Peptamen administered (20 ml) was measured on a daily basis. There was no difference in Peptamen intake between WT and cftr^−/− mice. The mean weight of WT mice at the start of DSS treatment was 20.5 g (range 14.5-26 g), and the mean weight of cftr^−/− mice was 18.9 g (range 15.5-23.5 g). […] Bile duct injury was quantified, as previously described, by examining histological features of epithelial injury, bile duct proliferation, and bile duct angulation (Blanco et al., supra). […]
After each specific treatment, the mice were euthanized with carbon dioxide. […] PPAR mRNA analyses were performed by quantitative RT-PCR. Total RNA from cftr^−/− and WT tissues was prepared using the RNA STAT-60 isolation reagent (Tel-Test, Friendswood, Tex.) and quantified spectrophotometrically. Quantitative PCR was performed in an ABI Prism 7700 Sequence Detector (Applied Biosystems, Foster City, Calif.) using a RT-PCR master mix kit (Applied Biosystems) according to the manufacturer's instructions. […] All samples were analyzed in duplicate.

PPARα = target: T1, PPARα (Mus musculus, UniProt P23204); assay: Western blot of PPARα in nuclear and cytosolic liver extracts; format: in vivo; conditions: 3 mice per group
T1 construct: from tissue; host or cells: mouse liver homogenate (WT and cftr-/- C57/BL6)
T1 sequence (P23204 1-468): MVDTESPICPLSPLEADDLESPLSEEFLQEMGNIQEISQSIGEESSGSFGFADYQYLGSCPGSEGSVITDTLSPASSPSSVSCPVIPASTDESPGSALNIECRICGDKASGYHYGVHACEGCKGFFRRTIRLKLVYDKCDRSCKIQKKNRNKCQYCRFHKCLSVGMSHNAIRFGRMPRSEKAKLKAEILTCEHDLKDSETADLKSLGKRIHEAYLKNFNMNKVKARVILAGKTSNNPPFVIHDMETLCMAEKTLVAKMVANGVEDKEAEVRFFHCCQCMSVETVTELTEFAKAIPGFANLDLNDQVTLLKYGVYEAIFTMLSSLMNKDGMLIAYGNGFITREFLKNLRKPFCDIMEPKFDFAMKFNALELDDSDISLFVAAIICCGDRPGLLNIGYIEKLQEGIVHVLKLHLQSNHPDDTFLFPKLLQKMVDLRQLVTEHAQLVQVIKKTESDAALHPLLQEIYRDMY
Protocol: as §2, with “g). These values were not statistically different between WT and cftr^−/− mice. […] There was no difference in weight lost during DSS treatment comparing WT and cftr^−/− mice.” for “g).”
For western blotting, nuclear and cytoplasmic extracts were prepared as described previously (Ollero et al., supra). […] Protein concentration was measured in all samples by the Bradford protein assay (Bio-Rad, Hercules, Calif.). […]

[5] = WT mice, single treatment, compared to untreated
[6] = cftr−/− mice, single treatment, compared to untreated

CC/C=C\C/C=C\C/C=C\C/C=C\C/C=C\C/C=C\CCC(=O)O [DHA, Docosahexaenoic Acid]
LPS-induced IL-6 secretion (IL-6 [1]): no effect
increase in liver PPARα mRNA (PPARα mRNA [2]; WT mice, combination of DSS and DHA, compared to no DSS and no DHA): 10.4 fold
increase in liver PPARα mRNA (PPARα mRNA [2]; [5]): 12.1 fold
increase in liver PPARα mRNA (PPARα mRNA [2]; cftr−/− mice, combination of DSS and DHA, compared to DSS only, not statistically significant): 2.7 fold
increase in liver PPARα mRNA (PPARα mRNA [2]; cftr−/− mice, combination of DSS and DHA, compared to no DSS and no DHA): 4.3 fold
increase in liver PPARα mRNA (PPARα mRNA [2]; [6]): 7.0 fold

CC/C=C\C/C=C\C/C=C\C/C=C\C/C=C\CCCC(=O)O [EPA, eicosapentaenoic acid]
decrease in LPS induced TNFα secretion (TNFα; CF macrophages, EPA 5 μM, 100 ng/ml LPS): no effect

Cc1cccc(Nc2cc(Cl)nc(SCC(=O)O)n2)c1C [Wy14643]
decrease in LPS induced TNFα secretion (TNFα; WT macrophages): did not alter secretion
PPARα mRNA levels (PPARα mRNA [3]): increase PPARα mRNA levels

CN(CCOc1ccc(CC2SC(=O)NC2=O)cc1)c1ccccn1 (stereo not shown) [rosiglitazone]
decrease in LPS induced TNFα secretion (TNFα; WT macrophages): 18%
decrease in LPS induced IL-6 secretion (IL-6 [4]): no effect

dextran sodium sulfate [DSS]
liver PPARγ mRNA levels (PPARγ mRNA): markedly suppressed
increase in liver PPARα mRNA (PPARα mRNA [2]; [5]): 9.3 fold
increase in liver PPARα mRNA (PPARα mRNA [2]; [6]): no significant change
PPARα nuclear/cytoplasmic ratio, liver (densitometry) (PPARα; WT mice): 1.06±0.05
PPARα nuclear/cytoplasmic ratio, liver (densitometry) (PPARα; cftr−/− mice): 0.61±0.02
